Data: ChEMBL document CHEMBL1201862, “PubChem BioAssay data set” (2004)
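Following 48 hours of exposure in 96-well plates, responses at five concentrations were used to interpolate endpoints linearly. Here, GI50 denotes the concentration required for 50% inhibition of growth.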 Activity calls are given as the source filed them. Rule as the data show it: active = GI50 up to about 1.1 µM and inactive = higher.

Legend:
Assay in all cases: NCI tumour cell line growth inhibition, 48 h
A498 = system: A498
A549 = system: A549
DU-145 = system: DU-145
HOP-62 = system: HOP-62
IGROV-1 = system: IGROV-1
KM12 = system: KM12
M14 = system: M14
MDA-N = system: MDA-N
NCI/ADR-RES = system: NCI/ADR-RES
OVCAR-4 = system: OVCAR-4
RXF 393 = system: RXF 393
SK-MEL-28 = system: SK-MEL-28
SK-MEL-2 = system: SK-MEL-2
SNB-75 = system: SNB-75
BT-549 = system: BT-549
TK-10 = system: TK-10
UACC-62 = system: UACC-62
UO-31 = system: UO-31
HL-60 = system: HL-60
HOP-92 = system: HOP-92

Measured: GI50

CSc1cc(Cl)c(C)cc1S(=O)(=O)NC(=O)NNc1ccc(Cl)cc1
inactive: A498 > 100 µM | A549 > 100 µM | DU-145 > 100 µM | HOP-62 > 100 µM | IGROV-1 > 100 µM | KM12 > 100 µM | M14 > 100 µM | MDA-N > 100 µM | NCI/ADR-RES > 100 µM | OVCAR-4 > 100 µM | RXF 393 99.1 µM | SK-MEL-28 > 100 µM | SK-MEL-2 > 100 µM | SNB-75 > 100 µM

Cc1cc(N(CCC#N)CCC#N)ccc1C(/N=N\c1ccc(C(=O)O)cc1)=N\NC(=O)c1cc(Cl)ccc1O
inactive: A498 28.6 µM | A549 42.2 µM | BT-549 45.9 µM | DU-145 64 µM | HOP-62 27 µM | IGROV-1 24.7 µM | KM12 28.8 µM | M14 > 100 µM | NCI/ADR-RES 37.6 µM | OVCAR-4 29.2 µM | RXF 393 25.4 µM | SK-MEL-2 83.6 µM | SNB-75 22.6 µM | TK-10 40.2 µM | UACC-62 31.1 µM | UO-31 22.1 µM

CC(C)=CCN(N=O)c1ncnc2[nH]cnc12
inactive: A498 95.1 µM | A549 > 100 µM | DU-145 > 100 µM | HL-60 > 100 µM | HOP-62 > 100 µM | HOP-92 > 100 µM | IGROV-1 > 100 µM | KM12 > 100 µM | M14 > 100 µM | MDA-N > 100 µM | NCI/ADR-RES > 100 µM | OVCAR-4 89.5 µM | RXF 393 > 100 µM | SK-MEL-28 > 100 µM | SNB-75 54.8 µM | TK-10 > 100 µM | UO-31 > 100 µM

Nc1nc(CCl)nc(N2CCOCC2)n1
inactive: A498 33 µM | A549 > 100 µM | BT-549 31.7 µM | DU-145 38.4 µM | HL-60 13.9 µM | HOP-62 18.2 µM | HOP-92 16.8 µM | IGROV-1 14.3 µM | KM12 32.1 µM | M14 27.1 µM | NCI/ADR-RES 29.4 µM | OVCAR-4 17.4 µM | RXF 393 36.6 µM | SK-MEL-28 20.4 µM | SK-MEL-2 > 100 µM | SNB-75 33.5 µM | TK-10 62.7 µM | UACC-62 15.8 µM | UO-31 17.3 µM

Oc1cc(-c2cccc(C(F)(F)F)c2)nc2cc3c(cc12)OCO3
inactive: A498 8.87 µM | A549 3.97 µM | BT-549 1.24 µM | HOP-62 1.83 µM | HOP-92 2.24 µM | IGROV-1 3.29 µM | KM12 2.12 µM | M14 1.76 µM | SK-MEL-28 2.87 µM | SK-MEL-2 1.28 µM | TK-10 > 50 µM | UACC-62 1.51 µM | UO-31 8.89 µM
active: HL-60 0.246 µM | NCI/ADR-RES 1.04 µM | SNB-75 1.06 µM

CC(NC1=NCCO1)c1ccccc1Cl (stereo not given)
active: HOP-92 < 0.01 µM
inactive: A498 > 100 µM | A549 > 100 µM | DU-145 > 100 µM | HL-60 > 100 µM | HOP-62 > 100 µM | IGROV-1 > 100 µM | KM12 > 100 µM | M14 > 100 µM | MDA-N > 100 µM | NCI/ADR-RES > 100 µM | OVCAR-4 > 100 µM | RXF 393 > 100 µM | SK-MEL-28 > 100 µM | SK-MEL-2 > 100 µM | SNB-75 96.2 µM | TK-10 > 100 µM | UACC-62 > 100 µM | UO-31 > 100 µM

COC(=O)[C@H](CCSC)NC(=O)c1ccc(CNC(=O)/C=C/c2cccc(Oc3ccccc3)c2)cc1
inactive: A498 19.8 µM | A549 98.4 µM | BT-549 > 69.7 µM | DU-145 > 100 µM | HOP-62 > 100 µM | HOP-92 9.75 µM | IGROV-1 27.5 µM | KM12 > 100 µM | M14 13.5 µM | NCI/ADR-RES 43 µM | OVCAR-4 33.6 µM | RXF 393 16.7 µM | SK-MEL-28 17.4 µM | SK-MEL-2 14.8 µM | SNB-75 22.4 µM | TK-10 > 45.3 µM | UACC-62 18.2 µM | UO-31 42.9 µM

CC1C(c2ccc(F)cc2)c2cc3c(cc2OC1N1CCCC1)OCO3 (stereo not given)
inactive: A549 34.3 µM | DU-145 61.9 µM | HOP-62 46.3 µM | HOP-92 15.5 µM | IGROV-1 42.2 µM | KM12 42.5 µM | M14 54.2 µM | MDA-N 66.4 µM | NCI/ADR-RES 43.6 µM | SK-MEL-28 90.4 µM | SK-MEL-2 89.3 µM | SNB-75 22.3 µM | TK-10 37.2 µM | UACC-62 55 µM | UO-31 23.2 µM

CCCN1C(=O)/C(=C\c2ccc(OC)c(OC)c2)S/C1=N\c1ccccc1
inactive: A498 38.3 µM | A549 > 100 µM | BT-549 87.9 µM | HL-60 > 100 µM | HOP-62 17.6 µM | HOP-92 50.1 µM | IGROV-1 > 100 µM | KM12 > 100 µM | M14 > 100 µM | MDA-N > 100 µM | NCI/ADR-RES > 100 µM | OVCAR-4 > 100 µM | SK-MEL-28 > 100 µM | SK-MEL-2 52.8 µM | TK-10 31.1 µM | UACC-62 > 100 µM | UO-31 > 100 µM

Cc1cccc2c1Oc1ncccc1C2NC(=O)CN(C)C (stereo not given)
inactive: A549 > 10 µM | BT-549 > 10 µM | HL-60 > 10 µM | HOP-92 3.77 µM | IGROV-1 > 10 µM | KM12 > 10 µM | M14 > 10 µM | NCI/ADR-RES > 10 µM | OVCAR-4 > 10 µM | SK-MEL-2 > 10 µM | SNB-75 7.78 µM | TK-10 > 10 µM | UACC-62 > 10 µM | UO-31 > 10 µM

N#CC1C2CCC3(CC2CCN1C(=O)c1ccccc1)OCCO3 (stereo not given)
inactive: A498 > 100 µM | A549 > 100 µM | HL-60 > 100 µM | HOP-62 > 100 µM | HOP-92 > 100 µM | IGROV-1 > 100 µM | KM12 > 100 µM | M14 > 100 µM | OVCAR-4 > 100 µM | RXF 393 > 100 µM | SK-MEL-28 > 100 µM | SK-MEL-2 2.37 µM | SNB-75 > 100 µM | TK-10 > 100 µM | UACC-62 > 100 µM | UO-31 > 100 µM

CC1=C(C(=O)NCc2ccccc2)C(c2ccc([N+](=O)[O-])cc2)C(C(=O)NCc2ccccc2)=C(C)N1
inactive: A498 86.1 µM | A549 31.9 µM | HL-60 21.2 µM | HOP-62 > 100 µM | HOP-92 26.8 µM | IGROV-1 56.5 µM | KM12 34.7 µM | M14 21.8 µM | OVCAR-4 17.4 µM | RXF 393 31.6 µM | SK-MEL-28 37.7 µM | SK-MEL-2 30.8 µM | SNB-75 40.4 µM | TK-10 42.8 µM | UACC-62 16.8 µM | UO-31 20.6 µM

CC1CN=C(N(C(=O)Nc2ccc(Cl)cc2)c2cccc(Cl)c2)S1 (stereo not given)
inactive: A498 16.9 µM | A549 25.6 µM | DU-145 46.8 µM | HL-60 48.2 µM | HOP-62 > 100 µM | HOP-92 26.3 µM | IGROV-1 24.4 µM | KM12 24.9 µM | M14 7.24 µM | MDA-N 24.9 µM | NCI/ADR-RES 19.2 µM | OVCAR-4 46.3 µM | SK-MEL-28 28.6 µM | SK-MEL-2 16.6 µM | SNB-75 65 µM | TK-10 15 µM | UO-31 37.4 µM

CN(C(=O)c1ccncc1)c1ccccc1
inactive: A498 > 100 µM | A549 > 100 µM | BT-549 > 100 µM | DU-145 > 100 µM | HL-60 > 100 µM | HOP-62 > 100 µM | HOP-92 > 100 µM | IGROV-1 > 100 µM | KM12 > 100 µM | M14 > 100 µM | NCI/ADR-RES > 100 µM | OVCAR-4 > 100 µM | RXF 393 > 100 µM | SK-MEL-28 > 100 µM | SK-MEL-2 > 100 µM | SNB-75 > 100 µM | TK-10 > 100 µM | UACC-62 > 100 µM | UO-31 > 100 µM

C[C@H]1CC[C@@]2(OC1)O[C@H]1C[C@H]3[C@@H]4CC[C@@H]5C[C@@H](OC6OC(CO)C(O)C(O)C6OC6OC(CO)C(O)C(O)C6O)CC[C@]5(C)[C@H]4CC[C@]3(C)[C@H]1[C@@H]2C (stereo not given in full)
active: HL-60 0.889 µM
inactive: A549 2 µM | BT-549 2.35 µM | DU-145 2.34 µM | HOP-62 2.25 µM | HOP-92 2.37 µM | IGROV-1 2.3 µM | KM12 2.6 µM | M14 2.06 µM | NCI/ADR-RES 2.99 µM | OVCAR-4 2.33 µM | SK-MEL-2 2.28 µM | SNB-75 2.24 µM | TK-10 1.94 µM | UACC-62 2.4 µM | UO-31 1.99 µM

CCOC(=O)CCC(NC(=O)c1ccc(NC(OC)c2nc3cc(C(F)(F)F)ccc3nc2-c2ccccc2)cc1)C(=O)OCC (stereo not given)
inactive: A498 17.3 µM | A549 18.5 µM | HL-60 2.21 µM | HOP-62 17 µM | HOP-92 16 µM | IGROV-1 15.7 µM | KM12 6.24 µM | M14 15.4 µM | OVCAR-4 21.5 µM | RXF 393 13.9 µM | SK-MEL-28 17.3 µM | SK-MEL-2 17.3 µM | SNB-75 19.9 µM | TK-10 21 µM | UACC-62 16.9 µM | UO-31 13.6 µM
